Blank lines part the entries; values can stand above or below the compound they belong to.
Assays:
Schadpflanzen = experiment: Herbicidal action pre-emergence, summary over the weed spectrum; type: in vivo; conditions: Vorauflaufverfahren, Aufwandmenge von 1.28 kg und weniger Aktivsubstanz pro Hektar
From the text: (§1) Samen von mono- bzw. dikotylen Unkraut- bzw. Kulturpflanzen werden in Holzfasertöpfen in sandiger Lehmerde ausgelegt und mit Erde abgedeckt. Die in Form von benetzbaren Pulvern (WP) oder als Emulsionskonzentrate (EC) formulierten erfindungsgemäßen Verbindungen werden dann als wäßrige Suspension bzw. Emulsion mit einer Wasseraufwandmenge von umgerechnet 600 bis 800 l/ha unter Zusatz von 0,2% Netzmittel auf die Oberfläche der Abdeckerde appliziert.
(§2) Nach der Behandlung werden die Töpfe im Gewächshaus aufgestellt und unter guten Wachstumsbedingungen für die Testpflanzen gehalten. Die visuelle Bonitur der Schäden an den Versuchspflanzen erfolgt nach einer Versuchszeit von 3 Wochen im Vergleich zu unbehandelten Kontrollen (herbizide Wirkung in Prozent (%): 100% Wirkung = Pflanzen sind abgestorben, 0 % Wirkung = wie Kontrollpflanzen).

MATIN [1] = experiment: Herbicidal action pre-emergence (greenhouse pot test, visual rating); type: in vivo, Matricaria inodora; conditions: Vorauflauf, 1280 g/ha, visual rating after 3 weeks vs untreated controls
From the text: as §1, §2

ALOMY = experiment: as above; type: in vivo, Alopecurus myosuroides; conditions: Vorauflauf, 1280 g/ha, visual rating after 3 weeks vs untreated controls
From the text: as §1, §2

AMARE [2] = experiment: as above; type: in vivo, Amaranthus retroflexus; conditions: Vorauflauf, 1280 g/ha, visual rating after 3 weeks vs untreated controls
From the text: as §1, §2

VIOTR [3] = experiment: as above; type: in vivo, Viola tricolor; conditions: Vorauflauf, 1280 g/ha, visual rating after 3 weeks vs untreated controls
From the text: as §1, §2

ECHCG = experiment: as above; type: in vivo, Echinochloa crus-galli; conditions: Vorauflauf, 1280 g/ha, visual rating after 3 weeks vs untreated controls
From the text: as §1, §2

LOLMU = experiment: as above; type: in vivo, Lolium multiflorum; conditions: Vorauflauf, 1280 g/ha, visual rating after 3 weeks vs untreated controls
From the text: as §1, §2

ABUTH [4] = experiment: as above; type: in vivo, Abutilon theophrasti; conditions: Vorauflauf, 1280 g/ha, visual rating after 3 weeks vs untreated controls
From the text: as §1, §2

VERPE [5] = experiment: as above; type: in vivo, Veronica persica; conditions: Vorauflauf, 1280 g/ha, visual rating after 3 weeks vs untreated controls
From the text: as §1, §2

SETVI = experiment: as above; type: in vivo, Setaria viridis; conditions: Vorauflauf, 1280 g/ha, visual rating after 3 weeks vs untreated controls
From the text: as §1, §2

STEME [6] = experiment: as above; type: in vivo, Stellaria media; conditions: Vorauflauf, 1280 g/ha, visual rating after 3 weeks vs untreated controls
From the text: as §1, §2

POLCO = experiment: as above; type: in vivo, Polygonum convolvolus; conditions: Vorauflauf, 1280 g/ha, visual rating after 3 weeks vs untreated controls
From the text: as §1, §2

Log P = type: physicochemical
VERPE [7] = experiment: Herbicidal action post-emergence (greenhouse pot test, visual rating); type: in vivo, Veronica persica; conditions: Nachauflauf, 1280 g/ha, visual rating after ca. 3 weeks vs untreated controls
From the text: (§3) Samen von mono- bzw. dikotylen Unkraut- bzw. Kulturpflanzen werden in Holzfasertöpfen in sandigem Lehmboden ausgelegt, mit Erde abgedeckt und im Gewächshaus unter guten Wachstumsbedingungen angezogen. 2 bis 3 Wochen nach der Aussaat werden die Versuchspflanzen im Einblattstadium behandelt. Die in Form von benetzbaren Pulvern (WP) oder als Emulsionskonzentrate (EC) formulierten erfindungsgemäßen Verbindungen werden dann als wäßrige Suspension bzw. Emulsion mit einer Wasseraufwandmenge von umgerechnet 600 bis 800 l/ha unter Zusatz von 0,2% Netzmittel auf die grünen Pflanzenteile gesprüht. Nach ca. 3 Wochen Standzeit der Versuchspflanzen im Gewächshaus unter optimalen Wachstumsbedingungen wird die Wirkung der Präparate visuell im Vergleich zu unbehandelten Kontrollen bonitiert (herbizide Wirkung in Prozent (%): 100% Wirkung = Pflanzen sind abgestorben, 0 % Wirkung = wie Kontrollpflanzen).

AMARE [8] = experiment: as above; type: in vivo, Amaranthus retroflexus; conditions: Nachauflauf, 1280 g/ha, visual rating after ca. 3 weeks vs untreated controls
From the text: as §3

VIOTR [9] = experiment: as above; type: in vivo, Viola tricolor; conditions: Nachauflauf, 1280 g/ha, visual rating after ca. 3 weeks vs untreated controls
From the text: as §3

ABUTH [10] = experiment: as above; type: in vivo, Abutilon theophrasti; conditions: Nachauflauf, 1280 g/ha, visual rating after ca. 3 weeks vs untreated controls
From the text: as §3

PHBPU = experiment: as above; type: in vivo, Pharbitis purpurea; conditions: Nachauflauf, 1280 g/ha, visual rating after ca. 3 weeks vs untreated controls
From the text: as §3

STEME [11] = experiment: as above; type: in vivo, Stellaria media; conditions: Nachauflauf, 1280 g/ha, visual rating after ca. 3 weeks vs untreated controls
From the text: as §3

MATIN [12] = experiment: as above; type: in vivo, Matricaria inodora; conditions: Nachauflauf, 1280 g/ha, visual rating after ca. 3 weeks vs untreated controls
From the text: as §3

logP (Log P): 1.8
Structure (SMILES): COc1ccc(C(NC(=O)c2cnn(C)c2Cl)c2ccon2)c(F)c1 (racemic) [Beispiel 260, 5-Chlor-N-[(2-fluor-4-methoxyphenyl)(isoxazol-3-yl)methyl]-1-methyl-1 H-pyrazol-4-carboxamid]

logP (Log P): 3.44
Structure (SMILES): COc1cccc(C(NC(=O)c2nsc(Cl)c2Cl)c2ccon2)c1 (racemic) [Beispiel 306, 4,5-Dichlor-N-[(3-methoxyphenyl)(isoxazol-3-yl)methyl]isothiazol-3-carboxamid]

logP (Log P): 2.63
Structure (SMILES): Cc1ncc(C(=O)NC(c2ccc(Cl)cc2)c2ccon2)c(C)c1Br (stereo not drawn) [Beispiel 131]

logP (Log P): 2.28
Structure (SMILES): COc1ccc(C(NC(=O)c2cnc(C)c(Br)c2C)c2ccon2)c(F)c1 (stereo not drawn) [Beispiel 132]

logP (Log P): 2.16
Structure (SMILES): COc1cccc(C(NC(=O)c2c(OC(C)C)cc(C)nc2Br)c2ccon2)c1 (stereo not drawn) [Beispiel 158]

logP (Log P): 1.18
Structure (SMILES): COc1ccncc1C(=O)NC(c1ccc(Cl)cc1)c1ccon1 (stereo not drawn) [Beispiel 188]

logP (Log P): 1
Structure (SMILES): COc1ccc(C(NC(=O)c2cnccc2OC)c2ccon2)c(F)c1 (stereo not drawn) [Beispiel 189]

logP (Log P): 1.07
Structure (SMILES): COc1ccncc1C(=O)NC(c1ccc(F)c(F)c1)c1ccon1 (stereo not drawn) [Beispiel 190]

logP (Log P): 2.63
Structure (SMILES): O=C(NC(c1ccc(Cl)cc1)c1ccon1)c1ncn(Cc2ccccc2)c1[N+](=O)[O-] (stereo not drawn) [Beispiel 289]

logP (Log P): 3.64
Structure (SMILES): COc1c(C(=O)NC(c2ccc(Cl)cc2)c2ccon2)csc1Br (stereo not drawn) [Beispiel 290]

logP (Log P): 1.76
Structure (SMILES): COc1ccc(C(NC(=S)c2cnn(C)c2Cl)c2ccon2)c(F)c1 (stereo not drawn) [Beispiel 312, 5-Chlor-N-[(2-fluor-4-methoxyphenyl)(isoxazol-3-yl)methyl]-1-methyl-1 H-pyrazol-4-carbothioamid]

logP (Log P): 4.51
Structure (SMILES): COc1c(C(=S)NC(c2ccc(Cl)cc2)c2ccon2)csc1Br (stereo not drawn) [Beispiel 313, 5-Brom-N-[(4-chlorphenyl)(isoxazol-3-yl)methyl]-4-methoxythiophen-3-carbothioamid]

Continued, compound first:

Structure (SMILES): Cc1cc(OC(C)C)c(C(=O)NC(c2ccc(Cl)cc2)c2ccon2)c(Cl)n1 (racemic) [Beispiel 152, 2-Chlor-N-[(4-chlorphenyl)(isoxazol-3-yl)methyl]-4-isopropoxy-6-methylnicotinamid]
herbizide Wirkung gegen Schadpflanzen (Schadpflanzen): sehr gute herbizide Wirkung
herbizide Wirkung MATIN (MATIN [1]): 100%
herbizide Wirkung ALOMY (ALOMY): 80%
herbizide Wirkung AMARE (AMARE [2]): 100%
herbizide Wirkung VIOTR (VIOTR [3]): 100%
herbizide Wirkung ECHCG (ECHCG): 90%
herbizide Wirkung LOLMU (LOLMU): 90%
herbizide Wirkung ABUTH (ABUTH [4]): 100%
herbizide Wirkung VERPE (VERPE [5]): 100%
herbizide Wirkung SETVI (SETVI): 100%
herbizide Wirkung STEME (STEME [6]): 90%
herbizide Wirkung POLCO (POLCO): 100%

Structure (SMILES): COc1ccc(C(NC(=O)c2c(OC(C)C)cc(C)nc2Br)c2ccon2)c(F)c1 (stereo not drawn) [Beispiel 3, 2-Brom-N-[(2-fluor-4-methoxyphenyl)(isoxazol-3-yl)methyl]-4-isopropoxy-6-methylnicotinamid]
herbizide Wirkung gegen Schadpflanzen (Schadpflanzen): sehr gute herbizide Wirkung

Structure (SMILES): CCCOc1cc(C)nc(Br)c1C(=O)NC(c1ccc(Cl)cc1)c1ccon1 (stereo not drawn) [Beispiel 35]
herbizide Wirkung gegen Schadpflanzen (Schadpflanzen): sehr gute herbizide Wirkung
logP (Log P): 2.63

Structure (SMILES): CCCOc1cc(C)nc(Br)c1C(=O)NC(c1ccon1)c1ccc(Cl)cc1Cl (stereo not drawn) [Beispiel 160]
herbizide Wirkung MATIN (MATIN [1]): 100%
herbizide Wirkung AMARE (AMARE [2]): 100%
herbizide Wirkung VIOTR (VIOTR [3]): 100%
herbizide Wirkung ABUTH (ABUTH [4]): 100%
herbizide Wirkung VERPE (VERPE [5]): 100%
herbizide Wirkung SETVI (SETVI): 90%
herbizide Wirkung STEME (STEME [6]): 100%
herbizide Wirkung POLCO (POLCO): 100%

Structure (SMILES): Cc1cc(Cl)c(C(=O)NC(c2ccc(F)c(F)c2)c2ccon2)c(OC(C)C)n1 (stereo not drawn) [Beispiel 164]
herbizide Wirkung VERPE (VERPE [7]): 80%
herbizide Wirkung AMARE (AMARE [8]): 100%
herbizide Wirkung AMARE (AMARE [2]): 100%
herbizide Wirkung VIOTR (VIOTR [3]): 100%
herbizide Wirkung VIOTR (VIOTR [9]): 80%
herbizide Wirkung ABUTH (ABUTH [10]): 90%
herbizide Wirkung VERPE (VERPE [5]): 100%
herbizide Wirkung STEME (STEME [6]): 90%
herbizide Wirkung POLCO (POLCO): 100%
herbizide Wirkung PHBPU (PHBPU): 80%

Structure (SMILES): COc1ccc(C(NC(=O)c2c(OC(C)C)cc(C)nc2Cl)c2ccon2)c(F)c1 (stereo not drawn) [Beispiel 187]
logP (Log P): 2.18

Structure (SMILES): O=C(NC(c1ccon1)c1ccc(Cl)cc1Cl)c1ccc(Cl)nc1 (stereo not drawn) [Beispiel 201]
herbizide Wirkung VIOTR (VIOTR [3]): 100%
herbizide Wirkung VERPE (VERPE [5]): 100%
herbizide Wirkung STEME (STEME [6]): 100%

Structure (SMILES): Cc1ccc(C(=O)NC(c2ccc(Cl)cc2)c2ccon2)cn1 (stereo not drawn) [Beispiel 209]
herbizide Wirkung VIOTR (VIOTR [9]): 80%
herbizide Wirkung ABUTH (ABUTH [10]): 80%
herbizide Wirkung STEME (STEME [11]): 100%

Structure (SMILES): COc1ccc(C(NC(=O)c2ccc(C)nc2)c2ccon2)c(F)c1 (stereo not drawn) [Beispiel 212]
herbizide Wirkung VERPE (VERPE [7]): 80%
herbizide Wirkung AMARE (AMARE [8]): 80%
herbizide Wirkung ABUTH (ABUTH [10]): 80%
herbizide Wirkung STEME (STEME [11]): 100%

Structure (SMILES): CCCOc1cc(C)nc(Cl)c1C(=O)NC(c1cnc(Cl)c(Cl)c1)c1ccon1 (stereo not drawn) [Beispiel 221]
logP (Log P): 2.45

Structure (SMILES): Cc1cc(OC(C)C)c(C(=O)NC(c2cnc(Cl)c(Cl)c2)c2ccon2)c(Cl)n1 (stereo not drawn) [Beispiel 222]
logP (Log P): 2.37

Structure (SMILES): CCCOc1cc(C)nc(Br)c1C(=O)NC(c1cnc(Cl)c(Cl)c1)c1ccon1 (stereo not drawn) [Beispiel 223]
logP (Log P): 2.6

Structure (SMILES): Cc1cc(OC(C)C)c(C(=O)NC(c2cnc(Cl)c(Cl)c2)c2ccon2)c(Br)n1 (stereo not drawn) [Beispiel 224]
logP (Log P): 2.51

Structure (SMILES): COc1ccc(C(NC(=O)c2c(C)nn(C)c2Cl)c2ccon2)c(F)c1 (stereo not drawn) [Beispiel 261]
herbizide Wirkung VERPE (VERPE [7]): 100%
herbizide Wirkung AMARE (AMARE [8]): 90%
herbizide Wirkung MATIN (MATIN [1]): 100%
herbizide Wirkung MATIN (MATIN [12]): 100%
herbizide Wirkung AMARE (AMARE [2]): 100%
herbizide Wirkung VIOTR (VIOTR [9]): 100%
herbizide Wirkung ABUTH (ABUTH [10]): 80%
herbizide Wirkung VERPE (VERPE [5]): 100%
herbizide Wirkung SETVI (SETVI): 90%
herbizide Wirkung STEME (STEME [11]): 100%
herbizide Wirkung STEME (STEME [6]): 100%
herbizide Wirkung PHBPU (PHBPU): 80%

Structure (SMILES): Cn1nc(C(F)(F)F)c(C(=O)NC(c2ccc(Cl)cc2)c2ccon2)c1Cl (stereo not drawn) [Beispiel 262]
herbizide Wirkung MATIN (MATIN [1]): 90%
herbizide Wirkung AMARE (AMARE [2]): 100%
herbizide Wirkung VIOTR (VIOTR [3]): 100%
herbizide Wirkung VERPE (VERPE [5]): 100%
herbizide Wirkung STEME (STEME [6]): 100%

Structure (SMILES): Cc1nn(C)cc1C(=O)NC(c1ccc(Cl)cc1)c1ccon1 (stereo not drawn) [Beispiel 265]
herbizide Wirkung VERPE (VERPE [7]): 100%
herbizide Wirkung AMARE (AMARE [8]): 100%
herbizide Wirkung MATIN (MATIN [1]): 100%
herbizide Wirkung MATIN (MATIN [12]): 80%
herbizide Wirkung AMARE (AMARE [2]): 100%
herbizide Wirkung VIOTR (VIOTR [3]): 100%
herbizide Wirkung ABUTH (ABUTH [4]): 90%
herbizide Wirkung VIOTR (VIOTR [9]): 100%
herbizide Wirkung ABUTH (ABUTH [10]): 100%
herbizide Wirkung VERPE (VERPE [5]): 100%
herbizide Wirkung STEME (STEME [11]): 100%
herbizide Wirkung STEME (STEME [6]): 100%

Structure (SMILES): COc1ccc(C(NC(=O)c2cn(C)nc2C)c2ccon2)c(F)c1 (stereo not drawn) [Beispiel 266]
herbizide Wirkung VERPE (VERPE [7]): 90%
herbizide Wirkung VIOTR (VIOTR [9]): 80%
herbizide Wirkung STEME (STEME [11]): 100%

Structure (SMILES): Cc1cc(C(=O)NC(c2ccc(Cl)cc2)c2ccon2)cs1 (stereo not drawn) [Beispiel 295]
herbizide Wirkung MATIN (MATIN [12]): 80%
herbizide Wirkung VIOTR (VIOTR [9]): 90%
herbizide Wirkung ABUTH (ABUTH [10]): 80%
herbizide Wirkung STEME (STEME [11]): 100%

Source: EP2147919A1, “Heterocyclic substituted amides, method for their manufacture and their use as herbicides” (Bayer CropScience Aktiengesellschaft, priority 2008, dated 2010)
